Results: patent publication US12357598B2, “Treatment of neurodevelopmental disorders” (THE REGENTS OF THE UNIVERSITY OF CALIFORNIA, priority 2018, dated 2025)

System: ddY mice
Test: Oxylipin analysis of plasma and brain regions of juvenile offspring after maternal glyphosate exposure
Type: in vivo, mouse
Settings: juvenile offspring (P28), maternal 0.095% glyphosate
Text: Collection of blood and brain samples and oxylipin analysis. Water or 0.095% glyphosate was given to pregnant mice from E5 to P21, as described above. The male offspring were separated from their mothers at weaning (P21). At juvenile (P28) stage, mice were deeply anesthetized with isoflurane and plasma was collected. Subsequently, brains were removed from the skulls. For Western blot analysis, brain regions such as prefrontal cortex (PFC), hippocampus, and striatum, were dissected from brain on ice. The samples were stored at −80° C. before assay. For oxylipin analysis, plasma was collected after isoflurane anesthesia at juvenile (P28) stage. Subsequently, PFC, hippocampus, and striatum were dissected from brain on ice, and the samples were stored at −80° C. before assay. Measurement of eicosanoids in the plasma and brain regions was performed at UC Davis using the previous method (4).

Structure (SMILES): O=C(O)CNCP(=O)(O)O [glyphosate]
- 4,5-DiHDPE level (plasma): 1.527 ± 0.112 nmol/mL
- 5(6)-EpETrE level (plasma): 24.279 ± 3.524 nmol/mL
- 5,6-DiHETrE level (plasma): 0.417 ± 0.047 nmol/mL
- 5-HEPE level (plasma): 8.117 ± 1.251 nmol/mL
- 5-HETE level (plasma): 2.137 ± 0.335 nmol/mL
- 5-oxo-ETE level (plasma): 20.987 ± 2.839 nmol/mL
- 6-keto-PGF1a level (plasma): 0.252 ± 0.043 nmol/mL
- 7(8)-EpDPE level (plasma): 195.343 ± 16.718 nmol/mL
- 8(9)-EpETE level (plasma): 0.863 ± 0.138 nmol/mL
- 8(9)-EpETrE alt level (plasma): 3.325 ± 0.409 nmol/mL
- 8(9)-EpETrE level (plasma): 13.892 ± 2.938 nmol/mL
- 8-HEPE level (plasma): 7.652 ± 0.970 nmol/mL
- 8-HETE level (plasma): 7.349 ± 0.718 nmol/mL
- 9(10)-EpOME level (plasma): 28.326 ± 4.243 nmol/mL
- 9,10,13-TriHOME level (plasma): 5.220 ± 0.403 nmol/mL
- 9,12,13-TriHOME level (plasma): 12.758 ± 1.096 nmol/mL
- 9-HETE level (plasma): 0.056 ± 0.012 nmol/mL
- 9-HODE level (plasma): 17.293 ± 2.482 nmol/mL
- 10(11)-EpDPE level (plasma): 13.285 ± 1.234 nmol/mL
- 11(12)-EpETE level (plasma): 2.579 ± 0.284 nmol/mL
- 11(12)-EpETrE level (plasma): 6.360 ± 1.002 nmol/mL
- 11,12-,15-TriHETrE level (plasma): 0.300 ± 0.072 nmol/mL
- 11,12-DiHETrE level (plasma): 0.394 ± 0.045 nmol/mL
- 11-HETE level (plasma): 1.949 ± 0.131 nmol/mL
- 12(13)-EpOME level (plasma): 38.512 ± 4.378 nmol/mL
- 12-HEPE level (plasma): 92.380 ± 15.026 nmol/mL
- 12-HETE level (plasma): 90.069 ± 11.494 nmol/mL
- 12-oxo-ETE level (plasma): 500.173 ± 99.031 nmol/mL
- 13(14)-EpDPE level (plasma): 8.177 ± 0.873 nmol/mL
- 13,14-DiHDPE level (plasma): 0.530 ± 0.056 nmol/mL
- 13-HODE level (plasma): 66.733 ± 9.200 nmol/mL
- 14(15)-EpETE level (plasma): 2.316 ± 0.258 nmol/mL
- 14(15)-EpETrE level (plasma): 4.038 ± 0.637 nmol/mL
- 14,15-DiHETrE level (plasma): 0.575 ± 0.051 nmol/mL
- 15(16)-EpODE level (plasma): 14.493 ± 1.929 nmol/mL
- 15(S)-HETrE level (plasma): 0.743 ± 0.167 nmol/mL
- 15-HETE level (plasma): 1.985 ± 0.228 nmol/mL
- 15-oxo-ETE level (plasma): 0.746 ± 0.105 nmol/mL
- 16(17)-EpDPE level (plasma): 7.978 ± 0.799 nmol/mL
- 16,17-DiHDPE level (plasma): 1.955 ± 0.201 nmol/mL
- 17(18)-EpETE level (plasma): 4.845 ± 0.480 nmol/mL
- 17-HDoHE level (plasma): 1386.287 ± 316.090 nmol/mL
- 19(20)-EpDPE level (plasma): 19.092 ± 1.307 nmol/mL
- 19,20-DiHDPE level (plasma): 6.507 ± 0.444 nmol/mL
- EKODE level (plasma): 12.405 ± 2.140 nmol/mL
- LTB3 level (plasma): 2.540 ± 0.525 nmol/mL
- PGD2 level (plasma): 0.138 ± 0.010 nmol/mL
- PGE2 level (plasma): 0.704 ± 0.010 nmol/mL
- PGF2a level (plasma): 0.462 ± 0.048 nmol/mL
- TXB2 level (plasma): 0.548 ± 0.069 nmol/mL
- 4,5-DiHDPE level (striatum): 1.331 ± 0.320 pmol/g
- 5(6)-EpETrE level (striatum): 2286.424 ± 589.971 pmol/g
- 5,6-DiHETrE level (striatum): 0.655 ± 0.058 pmol/g
- 5-HEPE level (striatum): 1.966 ± 0.253 pmol/g
- 5-HETE level (striatum): 21.009 ± 1.874 pmol/g
- 5-oxo-ETE level (striatum): 177.806 ± 23.342 pmol/g
- 6-keto-PGF1a level (striatum): 70.151 ± 4.942 pmol/g
- 7(8)-EpDPE level (striatum): 3684.482 ± 1464.079 pmol/g
- 8(9)-EpETE level (striatum): 2.863 ± 1.693 pmol/g
- 8(9)-EpETrE alt level (striatum): 256.271 ± 63.811 pmol/g
- 8(9)-EpETrE level (striatum): 7513.6 ± 2879.9 pmol/g
- 8-HEPE level (striatum): 1.198 ± 0.106 pmol/g
- 8-HETE level (striatum): 7.063 ± 1.134 pmol/g
- 9(10)-EpOME level (striatum): 64.909 ± 24.089 pmol/g
- 9,10,13-TriHOME level (striatum): 35.219 ± 5.532 pmol/g
- 9,12,13-TriHOME level (striatum): 59.110 ± 9.487 pmol/g
- 9-HETE level (striatum): 2.001 ± 0.403 pmol/g
- 9-HODE level (striatum): 42.211 ± 2.648 pmol/g
- 10(11)-EpDPE level (striatum): 283.118 ± 111.688 pmol/g
- 11(12)-EpETE level (striatum): 2.950 ± 0.707 pmol/g
- 11(12)-EpETrE level (striatum): 1056.655 ± 383.807 pmol/g
- 11,12-,15-TriHETrE level (striatum): 28.513 ± 2.432 pmol/g
- 11,12-DiHETrE level (striatum): 1.461 ± 0.114 pmol/g
- 11-HETE level (striatum): 263.508 ± 14.043 pmol/g
- 12(13)-EpOME level (striatum): 75.548 ± 26.478 pmol/g
- 12-HEPE level (striatum): 16.777 ± 3.707 pmol/g
- 12-HETE level (striatum): 402.213 ± 68.023 pmol/g
- 12-oxo-ETE level (striatum): 2383.322 ± 205.470 pmol/g
- 13(14)-EpDPE level (striatum): 196.586 ± 72.402 pmol/g
- 13,14-DiHDPE level (striatum): 0.849 ± 0.088 pmol/g
- 13-HODE level (striatum): 61.551 ± 3.988 pmol/g
- 14(15)-EpETE level (striatum): 2.368 ± 0.640 pmol/g
- 14(15)-EpETrE level (striatum): 991.031 ± 327.438 pmol/g
- 14,15-DiHETrE level (striatum): 2.399 ± 0.255 pmol/g
- 15(16)-EpODE level (striatum): 0.837 ± 0.335 pmol/g
- 15(S)-HETrE level (striatum): 13.863 ± 0.898 pmol/g
- 15-HETE level (striatum): 312.592 ± 16.237 pmol/g
- 15-oxo-ETE level (striatum): 15.203 ± 3.961 pmol/g
- 16(17)-EpDPE level (striatum): 186.178 ± 73.985 pmol/g
- 16,17-DiHDPE level (striatum): 1.427 ± 0.114 pmol/g
- 17(18)-EpETE level (striatum): 7.282 ± 2.840 pmol/g
- 17-HDoHE level (striatum): 7832.089 ± 1004.299 pmol/g
- 19(20)-EpDPE level (striatum): 373.365 ± 128.458 pmol/g
- 19,20-DiHDPE level (striatum): 8.734 ± 0.672 pmol/g
- EKODE level (striatum): 14.223 ± 1.256 pmol/g
- LTB3 level (striatum): 74.130 ± 28.033 pmol/g
- PGD2 level (striatum): 404.389 ± 30.557 pmol/g
- PGE2 level (striatum): 61.254 ± 3.057 pmol/g
- PGF2a level (striatum): 367.138 ± 24.248 pmol/g
- TXB2 level (striatum): 219.314 ± 15.121 pmol/g
